In patent EP0032304B1, “Antibiotic compositions” (ELI LILLY AND COMPANY, priority 1979, dated 1981):
Where a name gives a salt, the structure may show the parent alone. Read-outs that look alike come from different tables or passages of the source.

Tests used:
[1] = tested on: M. Hyorhinis HH; experiment: Minimal inhibitory concentration vs mycoplasma in contaminated LLC-MK2 tissue culture; type: cell-based, Mycoplasma hyorhinis; details: for MIC: Mesomycoplasma hyorhinis
Description: (§1) Suspensions of monkey kidney cells, LLC-MK2, in medium 199 (Morgan et al., Proc. Soc. Exp. Biol. Med, 73, 1 1950), were inoculated with cultures of the indicated mycoplasma to achieve an inoculum concentration of 1.5xlO' organisms/ml of cell suspension. Control cultures and the mycoplasma positive cultures included in each test were incubated at 37°C for 3-5 days. After incubation the medium in all cultures was changed to 1% horse serum in Medium 199 containing 1.68 g of sodium bicarbonates per liter. The tissue cultures innoculated with mycoplasma (except for mycoplasma positive control cultures) were then treated with the indicated individual antibiotics alone or with the combination of antibiotics shown in Table 1. When combinations of antibiotics were tested equal amounts of the antibiotics were used.
(§2) Solutions of the antibiotics were made up in Medium 199 containing 1.68 g of sodium bicarbonate per liter of medium. The solutions were sterile filtered through a millipore filter having a 0.2 µm porosity and were stored at 4°C prior to use. Two fold dilutions of the antibiotic solutions were made and each antibiotic solution was added to separate cultures to determine the minimal inhibitory concentration. The medium in each culture was changed twice a week with fresh antibiotic solution at the same concentration being added at each medium change. After two weeks, medium changes were made without antibiotic for two more weeks. Samples of the cultures were taken before each medium change in the last two weeks and were cultured to determine the presence of mycoplasma.
Cell suspensions of LLC-MK2 (Monkey kidney cell line) in Medium 199 containing 1% house serum of 4 ml volumes in tissue culture flasks were inoculated with a 3 day old culture of Mycoplasma hyorhinis (5 x 10^8 organism per ml in Eaton's broth). Approximately 2 to 3% of the mycoplasma culture per volume of the cell suspension was used. After inoculation the cell suspensions were incubated at a temperature of 37°C for from three to five days. Control cultures were also made up in the same manner. After incubation the medium in the control cultures and the mycoplasma positive cultures was replaced with fresh Medium 199 containing 1.68 g of sodium bicarbonate and 1% horse serum. The cultures were then treated with solutions of tylosin, tobramycin, and with the combination of tylosin and tobramycin in Medium 199 containing 1.68 g of sodium bicarbonate per liter. Solutions of each individual antibiotic and of the combination at a concentration of 1000 µg/ml were prepared. […] By two-fold serial dilution solutions at various concentrations down to 0.39 µg/ml were prepared. Each of the antibiotic solutions was added to a separate flask containing the tissue culture.
The tissue culture medium was replaced in each flask twice a week and at each medium change for two weeks a fresh solution of the antibiotic at the same concentration was added. After two weeks fresh medium replacements were made for two more weeks without the addition of antibiotic. Samples of each culture were taken before each medium replacement and were cultured to determine the presence of mycoplasma.

[2] = tested on: M. Hyorhinis; experiment: as above; type: cell-based; details: LLC-MK2 tissue culture contaminated with M. Hyorhinis, combinations contain equal amounts of each antibiotic
Description: as §1, §2
Cell suspensions of LLC-MK2 (Monkey kidney cell line) in Medium 199 containing 1% house serum of 4 ml volumes in tissue culture flasks were inoculated with a 3 day old culture of Mycoplasma hyorhinis (5 x 10^8 organism per ml in Eaton's broth). Approximately 2 to 3% of the mycoplasma culture per volume of the cell suspension was used. After inoculation the cell suspensions were incubated at a temperature of 37°C for from three to five days. Control cultures were also made up in the same manner. […]

[3] = tested on: M. gallisepticum 41313; experiment: as above; type: cell-based; details: Mycoplasmoides gallisepticum; LLC-MK2 tissue culture contaminated with M. gallisepticum 41313 (chicken mycoplasma); combinations contain equal amounts of each antibiotic
Description: as §1, §2

[4] = tested on: M. gallisepticum 36 F; experiment: as above; type: cell-based; details: LLC-MK2 tissue culture contaminated with M. gallisepticum 36 F (chicken mycoplasma), combinations contain equal amounts of each antibiotic
Description: as §1, §2

[5] = tested on: Swine L3F12F7; experiment: as above; type: cell-based; details: Mycoplasmopsis arginini; LLC-MK2 tissue culture contaminated with Swine L3F12F7 (mycoplasma isolated from swine); combinations contain equal amounts of each antibiotic
Description: as §1, §2

[6] = tested on: M. Hyorhinis HEK; experiment: as above; type: cell-based; details: Mesomycoplasma hyorhinis; LLC-MK2 tissue culture contaminated with M. Hyorhinis HEK (isolate from human embryonic kidney tissue); combinations contain equal amounts of each antibiotic
Description: as §1, §2

[7] = tested on: E. coli; experiment: 21 day trial in weanling pigs: treatment and control of colibacillosis, weight gain, feed efficiency, diarrhoea; type: in vivo; details: for Diarrhoea index: score 1 (formed stools only) to 5 (liquid stools only), scored twice daily for 13 days and once on the 14th day, 110 ppm in feed; for Percent increase over controls: Reduction of diarrhoea / Percent increase over controls: Average daily weight gain / Percent increase over controls: Improved feed efficiency / Average daily feed / Average daily gain / Feed efficiency: weanling pigs, 21 days; for Percent increase over controls: Reduction of diarrhoea: difference in incidence as percentage of the control incidence; for Percent increase over controls: Average daily weight gain / Percent increase over controls: Improved feed efficiency: vs non-treated control group; for Average daily feed / Average daily gain / Feed efficiency: tylosin phosphate and apramycin sulfate at 110 ppm in feed, combination 110 ppm of each
Excerpt: Tylosin and apramycin were each administered in the feed at a level of 110 ppm. The antibiotic combination was likewise administered in the feed containing both antibiotics at the 110 ppm level. The results are shown as a percentage increase over a non-treated control group as calculated from the statistical evaluation of the data obtained in the study.
The efficacy of the tylosin-apramycin combination in the treatment and control of colibacillosis is shown by the results obtained in a 21 day trial with weanling pigs. The pigs were divided by weight into treatment and control groups of eight pigs. Each treatment was randomly assigned to three groups. The animals were fed a normal ration ad libitum with the treatment groups receiving feed containing 110 ppm of each antibiotic. Weight gains, feed efficiency and the incidence of diarrhoea were used to measure the response to treatment.
Ninety-six weanling pigs averaging 6.0 kg in weight were randomly allocated by weight into 12 pens of 8 pigs per pen. Four treatments were used in the study as follows: 1) Non-medicated controls; 2) apramycin fed at 110 ppm; 3) tylosin phosphate fed at 110 ppm; and 4) apramycin sulfate and tylosin phosphate both fed at 110 ppm. Each treatment was replicated through three pens.
The pigs were fed for 21 days ad libitum a ration of 20% protein corn-soy meal with some rolled oats included for roughage. Vitamins and minerals were added as needed to balance the ration. The only difference in the rations fed to all pigs was the inclusion of the appropriate antibiotic or antibiotic combination in each of the medicated rations. All feed was weighed as fed, with the feed remaining at the end of the weigh period, weighed and discarded. The pigs were weighed at the initiation of the study and weekly thereafter.
Diarrhoea scores were maintained on a pen basis. The scoring was done by the same person on a twice daily schedule for the first 13 days and once only on the 14th day. The scoring index was the same as that shown in footnote 2 of Table 5.

[8] = tested on: P. hemolytica strain 41 D; experiment: In vitro MIC and checkerboard titration of the combination; type: cell-based, Pasturella hemolytica; details: antibiotic alone
Description: This organism can cause pneumonia in cattle which in cases of severe infection can lead to death. […] The synergistic activity of the combination of the two antibiotics was determined by the "checkerboard" titration method. In this method two antibiotics are tested in serial dilutions and in all combinations of these dilutions together to find the concentrations of each antibiotic, both alone and in combination, that inhibit growth of the test microorganism. The nature of the interaction between the two antibiotics may be determined algebraically or geometrically. In the algebraic method, the concentration of each antibiotic in the combination that inhibits growth is expressed as a fraction of the concentration that produces the same effect when the antibiotic is used alone. When the sum of these fractions is one, the combination is additive, when the sum is less than one, the combination is synergistic; and when the sum is greater than one, the combination is antagonistic.
Below are shown the calculations using data obtained in the in vitro test of tylosin, apramycin and the combination of the two antibiotics against P. hemolytica.

[9] = 28 day weight gain and feed utilization trial in post weaned pigs; type: in vivo; details: 28 days; for Daily feed intake (Rel) / Daily gain (Rel) / Feed efficiency (Rel) / Final weight (Rel): comparison to negative controls (100), 100 ppm in feed; for Daily feed intake x̄ (kg) per animal / Daily gain x̄ (g) per animal / Feed efficiency x̄ (kg feed/kg gain) / Final weight x̄ (kg) per animal: post weaned pigs, 100 ppm in feed (combination 100 ppm of each); for Final weight x̄ (kg) per animal: mean of two like trials
Description: The trials were carried out in pens with 6 pigs per pen for 28 days. The pigs were of mixed sex having an average initial body weight of 12.89 kg and an average age of six weeks. The animals received water before and after feeding. The animals were fed twice daily with feed having the following composition.
The tylosin-apramycin combination was compared in the trials with tylosin alone and with apramycin alone. The antibiotics and the combination thereof were administered in the animal feed at a level of 100 ppm, and, in the case of the combination; at 100 ppm for each antibiotic.

[10] = LLC-MK2 tissue culture contaminated with M. Hyorhinis HH (isolate from human heart tissue), combinations contain equal amounts of each antibiotic, read-out: Minimal inhibitory concentration
[11] = LLC-MK2 tissue culture contaminated with M. Hyorhinis HH (isolate from human heart tissue), combinations contain equal amounts of each antibiotic
[12] = 110 ppm of each antibiotic in feed

With `CO[C@H]1C[C@H](O[C@H]2[C@H](C)[C@@H](O[C@@H]3O[C@H](C)C[C@H](N(C)C)[C@H]3O)[C@@H](C)C[C@@]3(CO3)C(=O)[C@H](C)[C@@H](O)[C@@H](C)[C@@H](C)OC(=O)[C@@H]2C)O[C@@H](C)[C@@H]1O` [Oleandomycin] the MIC [1, 10] was 400 µg/mL.
Gentamicin gave a Minimal inhibitory concentration [2] of 100 µg/mL.
`NC[C@H]1O[C@H](O[C@H]2[C@H](O)[C@@H](O[C@H]3O[C@H](CO)[C@@H](O)[C@H](N)[C@H]3O)[C@H](N)C[C@@H]2N)[C@H](N)[C@@H](O)[C@@H]1O` [Nebramycin Factor 5] showed a Minimal inhibitory concentration [1, 11] of 200 µg/mL.
`CO[C@@H]1[C@@H](O[C@@H]2O[C@H](C)[C@@H](O[C@H]3C[C@@](C)(O)[C@@H](OC(=O)CC(C)C)[C@H](C)O3)[C@H](N(C)C)[C@H]2O)[C@@H](CC=O)C[C@@H](C)[C@@H](O)/C=C/C=C/C[C@@H](C)OC(=O)C[C@H]1O` [Leucomycin] gave a Minimal inhibitory concentration [1, 11] greater than 400 µg/mL and an MIC [1, 10] of 400 µg/mL.
In the case of Spiromycin, the Minimal inhibitory concentration [1, 11] is reported as greater than 800 µg/mL.
With `NC[C@H]1O[C@H](O[C@H]2[C@H](O)[C@@H](O[C@H]3O[C@H](CO)[C@@H](O)[C@H](N)[C@H]3O)[C@H](N)C[C@@H]2N)[C@H](N)C[C@@H]1O` [Tobramycin] the MIC ([1]; Example 4, procedure of Example 1, LLC-MK2 tissue culture, read-out: MIC) was 200 µg/mL, the MIC [3] was 200 µg/mL and the MIC ([4]; Mycoplasmoides gallisepticum) was 100 µg/mL. It also gave an MIC [5] of 50 µg/mL, an MIC [6] greater than 500 µg/mL and an MIC ([2]; Mesomycoplasma hyorhinis) of 100 µg/mL.
With Magnamycin the Minimal inhibitory concentration [1, 11] was greater than 800 µg/mL.
For Tylosin tartrate, the Minimal inhibitory concentration [1, 11] was 200 µg/mL and the Minimal inhibitory concentration [4] was greater than 800 µg/mL.
With `CC[C@H]1OC(=O)C[C@@H](O)[C@H](C)[C@@H](O[C@@H]2O[C@H](C)[C@@H](O[C@H]3C[C@@](C)(O)[C@@H](O)[C@H](C)O3)[C@H](N(C)C)[C@H]2O)[C@@H](CC=O)C[C@@H](C)C(=O)/C=C/C(C)=C/[C@@H]1CO[C@@H]1O[C@H](C)[C@@H](O)[C@@H](OC)[C@H]1OC` [Tylosin] the Minimal inhibitory concentration [1, 11] was 200 µg/mL, the MIC [5] was 200 µg/mL and the MIC [6] was greater than 200 µg/mL. For the same molecule, the “mean diarrhoea scores vs time in days (incidence of diarrhoea)” value ([7]; plot in the accompanying drawing, 110 ppm of each antibiotic in feed) was “some effectiveness”, the Diarrhoea index [7] was 2.10 and the “Percent increase over controls: Reduction of diarrhoea” value [7, 12] was 26.4%. The “Percent increase over controls: Average daily weight gain” value [7, 12] was 29.7%, the “Percent increase over controls: Improved feed efficiency” value [7, 12] was 11.4% and the “Average daily feed” value [7] was 0.51 kg. For the same molecule, the “Average daily gain” value [7] was 0.31 kg, the Feed efficiency [7] was 1.62 and the MIC [8] was 50 µg/mL. For the same molecule, the “Daily feed intake (Rel)” value [9] was “(100) percentage”, the “Daily gain (Rel)” value [9] was “(106) percentage” and the “Feed efficiency (Rel)” value [9] was “(97) percentage”. The “Final weight (Rel)” value [9] was “(102) percentage”, the “Daily feed intake x̄ (kg) per animal” value [9] was 0,92 kg and the “Daily gain x̄ (g) per animal” value [9] was 449 g. For the same molecule, the “Feed efficiency x̄ (kg feed/kg gain)” value [9] was 2,07 kg feed/kg gain and the “Final weight x̄ (kg) per animal” value [9] was 25,58 kg.
With `CN[C@@H]1[C@@H](O[C@H]2O[C@H](CO)[C@@H](N)[C@H](O)[C@H]2O)OC2C[C@@H](N)[C@@H](O[C@H]3[C@H](O)[C@@H](O)[C@H](N)C[C@@H]3N)OC2[C@@H]1O` (stereo partly drawn) [Apramycin] the MIC [1, 10] was 600 µg/mL, the Diarrhoea index [7] was 1.64 and the “Percent increase over controls: Reduction of diarrhoea” value [7, 12] was 42.8%. The “Percent increase over controls: Average daily weight gain” value [7, 12] was 19.0%, the “Percent increase over controls: Improved feed efficiency” value [7, 12] was 10.3% and the “Average daily feed” value [7] was 0.47 kg. For the same molecule, the “Average daily gain” value [7] was 0.29 kg, the Feed efficiency [7] was 1.64 and the MIC [8] was 25 µg/mL. For the same molecule, the “Daily feed intake (Rel)” value [9] was “(100) percentage”, the “Daily gain (Rel)” value [9] was “(110) percentage” and the “Feed efficiency (Rel)” value [9] was “(92) percentage”. For the same molecule, the “Final weight (Rel)” value [9] was “(102) percentage”, the “Daily feed intake x̄ (kg) per animal” value [9] was 0,92 kg and the “Daily gain x̄ (g) per animal” value [9] was 467 g. The “Feed efficiency x̄ (kg feed/kg gain)” value [9] was 1,96 kg feed/kg gain and the “Final weight x̄ (kg) per animal” value [9] was 25,62 kg.
In the case of Neomycin, the Minimal inhibitory concentration [2] is reported as 100 µg/mL.
For `NCC1OC(OC2C(N)CC(N)C(OC3OC(CO)C(O)C(N)C3O)C2O)C(N)CC1O` (stereo not drawn) [Tobramycin sulfate], the MIC [1, 10] was 200 µg/mL.
